From US20100267561A1, “HERBICIDAL PYRIDAZINONE DERIVATIVES” (priority 2007, published 2010)

Tests used:
Test in all cases: Test E pre-/postemergence plant response
Type in all cases: in vivo
[1] = test system: common purslane (Portulaca oleracea); settings: scale 0 to 100
Summary of the method: (§1)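 In this greenhouse assay, sown seeds received preemergence treatment and young plants of 2 to 18 cm (1- to 4-leaf stage) received postemergence treatment, both with compound in a non-phytotoxic solvent and surfactant vehicle. Effects were rated visually 14 to 21 days later on a 0–100 control scale.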

[2] = test system: dallisgrass (Paspalum dilatatum); settings: scale 0 to 100
Summary of the method: as §1

[3] = test system: large crabgrass (Digitaria sanguinalis); settings: scale 0 to 100
Summary of the method: as §1

[4] = test system: common mallow (Malva sylvestris); settings: Postemergence, scale 0 to 100
Summary of the method: as §1

[5] = test system: annual bluegrass (Poa annua); settings: scale 0 to 100
Summary of the method: as §1

[6] = test system: bermudagrass (Cynodon dactylon); settings: scale 0 to 100
Summary of the method: as §1

[7] = test system: purple nutsedge (Cyperus rotundus); settings: scale 0 to 100
Summary of the method: as §1

[8] = test system: guineagrass (Panicum maximum); settings: scale 0 to 100
Summary of the method: as §1

CCc1cc(-c2ccc(Cl)cc2)nn1-c1c(OS(C)(=O)=O)cnn(C)c1=O [Compound 39]
0: Plant response rating, Purslane ([1]; 16 g ai/ha, Preemergence) | Plant response rating, Purslane ([1]; 31 g ai/ha, Preemergence) | Plant response rating, Purslane ([1]; 62 g ai/ha, Preemergence) | Plant response rating, Purslane ([1]; Postemergence, 8 g ai/ha) | Plant response rating, Purslane ([1]; Postemergence, 16 g ai/ha) | Plant response rating, Purslane ([1]; Postemergence, 31 g ai/ha) | Plant response rating, Purslane ([1]; Postemergence, 62 g ai/ha) | Plant response rating, Mallow ([4]; 8 g ai/ha) | Plant response rating, Mallow ([4]; 16 g ai/ha) | Plant response rating, Mallow ([4]; 31 g ai/ha) | Plant response rating, Mallow ([4]; 62 g ai/ha) | Plant response rating, Bluegrass ([5]; 8 g ai/ha, Preemergence) | Plant response rating, Bluegrass ([5]; 16 g ai/ha, Preemergence) | Plant response rating, Bluegrass ([5]; 31 g ai/ha, Preemergence) | Plant response rating, Bluegrass ([5]; 62 g ai/ha, Preemergence) | Plant response rating, Bluegrass ([5]; Postemergence, 8 g ai/ha) | Plant response rating, Bluegrass ([5]; Postemergence, 16 g ai/ha) | Plant response rating, Bluegrass ([5]; Postemergence, 31 g ai/ha) | Plant response rating, Bluegrass ([5]; Postemergence, 62 g ai/ha) | Plant response rating, Nutsedge, Purple ([7]; 16 g ai/ha, Preemergence) | Plant response rating, Nutsedge, Purple ([7]; 31 g ai/ha, Preemergence) | Plant response rating, Nutsedge, Purple ([7]; Postemergence, 8 g ai/ha) | Plant response rating, Nutsedge, Purple ([7]; Postemergence, 16 g ai/ha) | Plant response rating, Nutsedge, Purple ([7]; Postemergence, 31 g ai/ha) | Plant response rating, Nutsedge, Purple ([7]; Postemergence, 62 g ai/ha)
50: Plant response rating, Bermudagrass ([6]; Postemergence, 31 g ai/ha)
75: Plant response rating, Dallisgrass ([2]; Postemergence, 31 g ai/ha) | Plant response rating, Dallisgrass ([2]; Postemergence, 62 g ai/ha) | Plant response rating, Bermudagrass ([6]; 16 g ai/ha, Preemergence)
35: Plant response rating, Dallisgrass ([2]; 8 g ai/ha, Preemergence) | Plant response rating, Bermudagrass ([6]; Postemergence, 8 g ai/ha)
60: Plant response rating, Dallisgrass ([2]; Postemergence, 8 g ai/ha) | Plant response rating, Crabgrass, Large ([3]; 16 g ai/ha, Preemergence)
100: Plant response rating, Dallisgrass ([2]; 62 g ai/ha, Preemergence) | Plant response rating, Crabgrass, Large ([3]; 62 g ai/ha, Preemergence) | Plant response rating, Bermudagrass ([6]; 62 g ai/ha, Preemergence) | Plant response rating, Guineagrass ([8]; 16 g ai/ha, Preemergence) | Plant response rating, Guineagrass ([8]; 31 g ai/ha, Preemergence) | Plant response rating, Guineagrass ([8]; 62 g ai/ha, Preemergence)
90: Plant response rating, Crabgrass, Large ([3]; Postemergence, 16 g ai/ha) | Plant response rating, Guineagrass ([8]; Postemergence, 31 g ai/ha)
95: Plant response rating, Crabgrass, Large ([3]; Postemergence, 31 g ai/ha) | Plant response rating, Bermudagrass ([6]; 31 g ai/ha, Preemergence) | Plant response rating, Guineagrass ([8]; Postemergence, 62 g ai/ha)
65: Plant response rating, Crabgrass, Large ([3]; Postemergence, 8 g ai/ha) | Plant response rating, Bermudagrass ([6]; Postemergence, 62 g ai/ha)
70: Plant response rating, Dallisgrass ([2]; Postemergence, 16 g ai/ha)
80: Plant response rating, Guineagrass ([8]; Postemergence, 8 g ai/ha) | Plant response rating, Guineagrass ([8]; Postemergence, 16 g ai/ha)
20: Plant response rating, Bermudagrass ([6]; 8 g ai/ha, Preemergence)
30: Plant response rating, Crabgrass, Large ([3]; 8 g ai/ha, Preemergence)
40: Plant response rating, Bermudagrass ([6]; Postemergence, 16 g ai/ha)
98: Plant response rating, Dallisgrass ([2]; 16 g ai/ha, Preemergence) | Plant response rating, Dallisgrass ([2]; 31 g ai/ha, Preemergence) | Plant response rating, Crabgrass, Large ([3]; 31 g ai/ha, Preemergence) | Plant response rating, Crabgrass, Large ([3]; Postemergence, 62 g ai/ha)

CCc1cc(-c2ccc(Cl)cc2)nn1-c1c(OC(=O)C(C)(C)C)cnn(C)c1=O [Compound 40]
95: Plant response rating, Dallisgrass ([2]; 16 g ai/ha, Preemergence) | Plant response rating, Dallisgrass ([2]; Postemergence, 62 g ai/ha) | Plant response rating, Crabgrass, Large ([3]; Postemergence, 62 g ai/ha) | Plant response rating, Bluegrass ([5]; 62 g ai/ha, Preemergence) | Plant response rating, Guineagrass ([8]; Postemergence, 31 g ai/ha)
65: Plant response rating, Dallisgrass ([2]; Postemergence, 8 g ai/ha)
100: Plant response rating, Dallisgrass ([2]; 31 g ai/ha, Preemergence) | Plant response rating, Dallisgrass ([2]; 62 g ai/ha, Preemergence) | Plant response rating, Crabgrass, Large ([3]; 31 g ai/ha, Preemergence) | Plant response rating, Crabgrass, Large ([3]; 62 g ai/ha, Preemergence) | Plant response rating, Bermudagrass ([6]; 62 g ai/ha, Preemergence) | Plant response rating, Guineagrass ([8]; 16 g ai/ha, Preemergence) | Plant response rating, Guineagrass ([8]; 31 g ai/ha, Preemergence) | Plant response rating, Guineagrass ([8]; 62 g ai/ha, Preemergence) | Plant response rating, Guineagrass ([8]; Postemergence, 62 g ai/ha)
50: Plant response rating, Crabgrass, Large ([3]; 8 g ai/ha, Preemergence) | Plant response rating, Bermudagrass ([6]; Postemergence, 16 g ai/ha)
85: Plant response rating, Crabgrass, Large ([3]; Postemergence, 16 g ai/ha)
60: Plant response rating, Bluegrass ([5]; 8 g ai/ha, Preemergence) | Plant response rating, Bermudagrass ([6]; Postemergence, 31 g ai/ha)
80: Plant response rating, Dallisgrass ([2]; 8 g ai/ha, Preemergence) | Plant response rating, Dallisgrass ([2]; Postemergence, 31 g ai/ha) | Plant response rating, Bermudagrass ([6]; 16 g ai/ha, Preemergence) | Plant response rating, Guineagrass ([8]; Postemergence, 8 g ai/ha)
40: Plant response rating, Bermudagrass ([6]; 8 g ai/ha, Preemergence)
75: Plant response rating, Dallisgrass ([2]; Postemergence, 16 g ai/ha) | Plant response rating, Crabgrass, Large ([3]; Postemergence, 8 g ai/ha)
90: Plant response rating, Crabgrass, Large ([3]; Postemergence, 31 g ai/ha) | Plant response rating, Bluegrass ([5]; 16 g ai/ha, Preemergence) | Plant response rating, Guineagrass ([8]; Postemergence, 16 g ai/ha)
15: Plant response rating, Bluegrass ([5]; Postemergence, 31 g ai/ha) | Plant response rating, Bluegrass ([5]; Postemergence, 62 g ai/ha)
0: Plant response rating, Purslane ([1]; 16 g ai/ha, Preemergence) | Plant response rating, Purslane ([1]; 31 g ai/ha, Preemergence) | Plant response rating, Purslane ([1]; 62 g ai/ha, Preemergence) | Plant response rating, Purslane ([1]; Postemergence, 8 g ai/ha) | Plant response rating, Purslane ([1]; Postemergence, 16 g ai/ha) | Plant response rating, Purslane ([1]; Postemergence, 31 g ai/ha) | Plant response rating, Purslane ([1]; Postemergence, 62 g ai/ha) | Plant response rating, Mallow ([4]; 8 g ai/ha) | Plant response rating, Mallow ([4]; 16 g ai/ha) | Plant response rating, Mallow ([4]; 31 g ai/ha) | Plant response rating, Mallow ([4]; 62 g ai/ha) | Plant response rating, Bluegrass ([5]; Postemergence, 8 g ai/ha) | Plant response rating, Bluegrass ([5]; Postemergence, 16 g ai/ha) | Plant response rating, Nutsedge, Purple ([7]; 16 g ai/ha, Preemergence) | Plant response rating, Nutsedge, Purple ([7]; 31 g ai/ha, Preemergence) | Plant response rating, Nutsedge, Purple ([7]; 62 g ai/ha, Preemergence) | Plant response rating, Nutsedge, Purple ([7]; Postemergence, 8 g ai/ha) | Plant response rating, Nutsedge, Purple ([7]; Postemergence, 16 g ai/ha) | Plant response rating, Nutsedge, Purple ([7]; Postemergence, 31 g ai/ha) | Plant response rating, Nutsedge, Purple ([7]; Postemergence, 62 g ai/ha)
70: Plant response rating, Crabgrass, Large ([3]; 16 g ai/ha, Preemergence) | Plant response rating, Bermudagrass ([6]; Postemergence, 62 g ai/ha)
30: Plant response rating, Bermudagrass ([6]; Postemergence, 8 g ai/ha)
98: Plant response rating, Bermudagrass ([6]; 31 g ai/ha, Preemergence)
